Numbered stars: 1 amine (or outer) side, 2 acyl side, 3 side chain; on linkers, the order of the positions; unused ones are H or OH. Bridge positions count the residues as written; N and C are the ends. Square brackets hold non-standard residues; d marks the D form. Side chains are listed from the residue outwards. Peptide text beside a SMILES is read from it. I, II: the chains in the order shown. * marks the point of attachment. C18 diacid = O=C(O)CCCCCCCCCCCCCCCCC(=O)*; γGlu = O=C(O)[C@H](CCC(=O)[*:2])N[*:1]; Ac4c = NC1(C(=O)O)CCC1; AEEA = NCCOCCOCC(=O)O; Aib = CC(C)(N)C(=O)O
Legend:
human GLP-1 receptor = molecular target: T1, human GLP-1 receptor (Homo sapiens, UniProt P43220); experiment: GLP-1 receptor potency, CRE luciferase reporter gene assay in BHK cells; type: cell-based; settings: BHK cells expressing human GLP-1 receptor, read-out: EC50 GLP-1R
T1 construct: expressed in transfected cells; host or cells: BHK cells (parent BHKTS13), clone FCW467-12A/KZ10-1, with CRE luciferase
T1 sequence (P43220 24-463): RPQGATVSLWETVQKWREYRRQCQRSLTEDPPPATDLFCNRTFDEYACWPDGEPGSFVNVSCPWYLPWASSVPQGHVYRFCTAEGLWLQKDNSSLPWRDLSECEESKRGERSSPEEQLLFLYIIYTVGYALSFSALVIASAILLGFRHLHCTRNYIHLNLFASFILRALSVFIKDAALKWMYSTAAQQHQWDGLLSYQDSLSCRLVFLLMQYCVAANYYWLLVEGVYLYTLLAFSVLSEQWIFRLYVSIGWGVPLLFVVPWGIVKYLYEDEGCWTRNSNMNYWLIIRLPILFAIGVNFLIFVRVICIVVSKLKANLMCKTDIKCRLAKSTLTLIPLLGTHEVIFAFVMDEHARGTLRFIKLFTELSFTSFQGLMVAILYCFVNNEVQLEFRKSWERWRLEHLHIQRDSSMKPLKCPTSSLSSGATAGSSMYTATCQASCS
How it was run: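 Potency as cAMP-driven firefly luciferase signal after 3 h, 37° C exposure to 10-fold dilutions (final 1×10EE-13–1×10EE-6 M). Stable hGLP-1R/CRE-luc BHK clone, 5×10EE3 cells/well, medium containing 2% ovalbumin and 0.2% Pluronic F-68; EC50 (pM) from variable-slope non-linear regression.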

[1] = Chemical stability assessment by RP-UPLC; type: physicochemical; settings: 333 μM, 8 mM phosphate buffer pH 7.3, 37° C. vs 5° C.
How it was run: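 Purity loss = (purity after 14 days at 5° C. minus that at 37° C.) relative to the 5° C. value, purity being main-peak area % by RP-UPLC with UV at 215 nm. Samples were 333 μM in 8 mM phosphate, pH 7.3; gradient adjusted for outlying retention times.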

| SMILES | EC50 (human GLP-1 receptor) | Purity loss; 14 days at 37° C. [1] |
| --- | --- | --- |
| CC(C)C[C@H](NC(=O)[C@H](Cc1ccc(O)cc1)NC(=O)[C@H](CCCCN)NC(=O)[C@H](CO)NC(=O)[C@H](CC(C)C)NC(=O)[C@H](CC(=O)O)NC(=O)[C@H](CO)NC(=O)[C@@H](NC(=O)[C@H](Cc1ccccc1)NC(=O)[C@@H](NC(=O)CNC(=O)[C@H](CCC(N)=O)NC(=O)C(C)(C)NC(=O)[C@@H](N)Cc1c[nH]cn1)[C@@H](C)O)[C@@H](C)O)C(=O)N[C@@H](CCC(=O)O)C(=O)N[C@@H](CO)C(=O)N[C@@H](CCCNC(=N)N)C(=O)N[C@@H](CCCNC(=N)N)C(=O)N[C@@H](C)C(=O)N[C@@H](CCCNC(=N)N)C(=O)N[C@@H](CCC(=O)O)C(=O)N[C@@H](Cc1ccccc1)C(=O)N[C@H](C(=O)N[C@@H](CCC(N)=O)C(=O)N[C@@H](Cc1c[nH]c2ccccc12)C(=O)N[C@@H](CC(C)C)C(=O)N[C@@H](CC(C)C)C(=O)N[C@@H](CCCCNC(=O)COCCOCCNC(=O)COCCOCCNC(=O)CC[C@H](NC(=O)CC[C@H](NC(=O)CC[C@H](NC(=O)CCCCCCCCCCCCCCCCC(=O)O)C(=O)O)C(=O)O)C(=O)O)C(=O)N[C@H](C(N)=O)[C@@H](C)O)C(C)C [Example 42, N^ε28-[2-[2-[2-[[2-[2-[2-[[(4S)-4-carboxy-4-[[(4S)-4-carboxy-4-[[(4S)-4-carboxy-4-(17-carboxyheptadecanoylamino)butanoyl]amino]butanoyl]amino]butanoyl]amino]ethoxy]ethoxy]acetyl]amino]ethoxy]ethoxy]acetyl]-[Aib2,Leu10,Glu15,Arg20,Glu21,Leu27,Lys28]-Glucagon amide] (H-H[Aib]QGTFTSDLSKYLESRRAREFVQWLLK([AEEA-AEEA-γGlu-γGlu-γGlu-C18 diacid])T-NH2; N-terminus assumed) | 3 pM | 3% |
| CC(C)C[C@H](NC(=O)[C@H](Cc1ccc(O)cc1)NC(=O)[C@H](CCCCN)NC(=O)[C@H](CO)NC(=O)[C@H](CC(C)C)NC(=O)[C@H](CC(=O)O)NC(=O)[C@H](CO)NC(=O)[C@@H](NC(=O)[C@H](Cc1ccccc1)NC(=O)[C@@H](NC(=O)CNC(=O)[C@H](CCC(N)=O)NC(=O)C(C)(C)NC(=O)[C@@H](N)Cc1c[nH]cn1)[C@@H](C)O)[C@@H](C)O)C(=O)N[C@@H](CC(=O)O)C(=O)N[C@@H](C)C(=O)N[C@@H](CCCNC(=N)N)C(=O)N[C@@H](CCCNC(=N)N)C(=O)N[C@@H](C)C(=O)N[C@@H](CCCNC(=N)N)C(=O)N[C@@H](CCC(=O)O)C(=O)N[C@@H](Cc1ccccc1)C(=O)N[C@H](C(=O)N[C@@H](CCC(N)=O)C(=O)N[C@@H](Cc1c[nH]c2ccccc12)C(=O)N[C@@H](CC(C)C)C(=O)N[C@@H](CC(C)C)C(=O)N[C@@H](CCCCNC(=O)CC[C@H](NC(=O)CC[C@H](NC(=O)COCCOCCNC(=O)COCCOCCNC(=O)CC[C@H](NC(=O)CCCCCCCCCCCCCCCCC(=O)O)C(=O)O)C(=O)O)C(=O)O)C(=O)N[C@H](C(N)=O)[C@@H](C)O)C(C)C [Example 43, N^ε28-[(4S)-4-carboxy-4-[[(4S)-4-carboxy-4-[[2-[2-[2-[[2-[2-[2-[[(4S)-4-carboxy-4-(17-carboxyheptadecanoylamino)butanoyl]amino]ethoxy]ethoxy]acetyl]amino]ethoxy]ethoxy]acetyl]amino]butanoyl]amino]butanoyl]-[Aib2,Leu10,Ala16,Arg20,Glu21,Leu27,Lys28]-Glucagon amide] (H-H[Aib]QGTFTSDLSKYLDARRAREFVQWLLK([γGlu-γGlu-AEEA-AEEA-γGlu-C18 diacid])T-NH2; N-terminus assumed) | 5 pM | 2% |
| CC(C)C[C@H](NC(=O)[C@H](Cc1ccc(O)cc1)NC(=O)[C@H](CCCCN)NC(=O)[C@H](CO)NC(=O)[C@H](CC(C)C)NC(=O)[C@H](CC(=O)O)NC(=O)[C@H](CO)NC(=O)[C@@H](NC(=O)[C@H](Cc1ccccc1)NC(=O)[C@@H](NC(=O)CNC(=O)[C@H](CCC(N)=O)NC(=O)C1(NC(=O)[C@@H](N)Cc2c[nH]cn2)CCC1)[C@@H](C)O)[C@@H](C)O)C(=O)N[C@@H](CCC(=O)O)C(=O)N[C@@H](CO)C(=O)N[C@@H](CCCNC(=N)N)C(=O)N[C@@H](CCCNC(=N)N)C(=O)N[C@@H](C)C(=O)N[C@@H](CCCNC(=N)N)C(=O)N[C@@H](CCC(=O)O)C(=O)N[C@@H](Cc1ccccc1)C(=O)N[C@H](C(=O)N[C@@H](CCC(N)=O)C(=O)N[C@@H](Cc1c[nH]c2ccccc12)C(=O)N[C@@H](CC(C)C)C(=O)N[C@@H](CC(C)C)C(=O)N[C@@H](CCCCNC(=O)CC[C@H](NC(=O)CC[C@H](NC(=O)COCCOCCNC(=O)COCCOCCNC(=O)CC[C@H](NC(=O)CCCCCCCCCCCCCCCCC(=O)O)C(=O)O)C(=O)O)C(=O)O)C(=O)N[C@H](C(N)=O)[C@@H](C)O)C(C)C [Example 44, N^ε28-[(4S)-4-carboxy-4-[[(4S)-4-carboxy-4-[[2-[2-[2-[[2-[2-[2-[[(4S)-4-carboxy-4-(17-carboxyheptadecanoylamino)butanoyl]amino]ethoxy]ethoxy]acetyl]amino]ethoxy]ethoxy]acetyl]amino]butanoyl]amino]butanoyl]-[Acb2,Leu10,Glu15,Arg20,Glu21,Leu27,Lys28]-Glucagon amide] (H-H[Ac4c]QGTFTSDLSKYLESRRAREFVQWLLK([γGlu-γGlu-AEEA-AEEA-γGlu-C18 diacid])T-NH2; N-terminus assumed) | 3 pM | 2% |
| CC(C)C[C@H](NC(=O)[C@H](CC(=O)O)NC(=O)[C@H](CC(C)C)NC(=O)[C@H](Cc1ccc(O)cc1)NC(=O)[C@H](CCCCN)NC(=O)[C@H](CO)NC(=O)[C@H](CC(C)C)NC(=O)[C@H](CC(=O)O)NC(=O)[C@H](CO)NC(=O)[C@@H](NC(=O)[C@H](Cc1ccccc1)NC(=O)[C@@H](NC(=O)CNC(=O)[C@H](CCC(N)=O)NC(=O)C1(NC(=O)[C@@H](N)Cc2c[nH]cn2)CCC1)[C@@H](C)O)[C@@H](C)O)C(=O)N[C@@H](CCCCN)C(=O)N[C@@H](CCCNC(=N)N)C(=O)N[C@@H](C)C(=O)N[C@@H](CCCNC(=N)N)C(=O)N[C@@H](CCC(=O)O)C(=O)N[C@@H](Cc1ccccc1)C(=O)N[C@H](C(=O)N[C@@H](CCC(N)=O)C(=O)N[C@@H](Cc1c[nH]c2ccccc12)C(=O)N[C@@H](CC(C)C)C(=O)N[C@@H](CC(C)C)C(=O)N[C@@H](CCCCNC(=O)CC[C@H](NC(=O)CC[C@H](NC(=O)COCCOCCNC(=O)COCCOCCNC(=O)CC[C@H](NC(=O)CC[C@H](NC(=O)CCCCCCCCCCCCCCCCC(=O)O)C(=O)O)C(=O)O)C(=O)O)C(=O)O)C(=O)N[C@H](C(N)=O)[C@@H](C)O)C(C)C [Example 47, N^ε28-[(4S)-4-carboxy-4-[[(4S)-4-carboxy-4-[[2-[2-[2-[[2-[2-[2-[[(4S)-4-carboxy-4-[[(4S)-4-carboxy-4-(17-carboxyheptadecanoylamino)butanoyl]amino]butanoyl]amino]ethoxy]ethoxy]acetyl]amino]ethoxy]ethoxy]acetyl]amino]butanoyl]amino]butanoyl]-[Acb2,Leu10,Leu16,Lys17,Arg20,Glu21,Leu27,Lys28]-Glucagon amide] (H-H[Ac4c]QGTFTSDLSKYLDLKRAREFVQWLLK([γGlu-γGlu-AEEA-AEEA-γGlu-γGlu-C18 diacid])T-NH2; N-terminus assumed) | 17 pM | 3% |
| CC(C)C[C@H](NC(=O)[C@H](CC(=O)O)NC(=O)[C@H](CC(C)C)NC(=O)[C@H](Cc1ccc(O)cc1)NC(=O)[C@H](CCCCN)NC(=O)[C@H](CO)NC(=O)[C@H](CC(C)C)NC(=O)[C@H](CC(=O)O)NC(=O)[C@H](CO)NC(=O)[C@@H](NC(=O)[C@H](Cc1ccccc1)NC(=O)[C@@H](NC(=O)CNC(=O)[C@H](CCC(N)=O)NC(=O)C1(NC(=O)[C@@H](N)Cc2c[nH]cn2)CCC1)[C@@H](C)O)[C@@H](C)O)C(=O)N[C@@H](CCCCN)C(=O)N[C@@H](CCCNC(=N)N)C(=O)N[C@@H](C)C(=O)N[C@@H](CCCNC(=N)N)C(=O)N[C@@H](CCC(=O)O)C(=O)N[C@@H](Cc1ccccc1)C(=O)N[C@H](C(=O)N[C@@H](CCC(N)=O)C(=O)N[C@@H](Cc1c[nH]c2ccccc12)C(=O)N[C@@H](CC(C)C)C(=O)N[C@@H](CC(C)C)C(=O)N[C@@H](CCCCNC(=O)CNC(=O)[C@H](CO)NC(=O)[C@H](CCC(=O)O)NC(=O)CNC(=O)[C@H](CO)NC(=O)CC[C@H](NC(=O)CC[C@H](NC(=O)CCCCCCCCCCCCCCCCC(=O)O)C(=O)O)C(=O)O)C(=O)N[C@H](C(N)=O)[C@@H](C)O)C(C)C [Example 48] (I: H-H[Ac4c]QGTFTSDLSKYLDLKRAREFVQWLLKT-NH2 / II: {C18 diacid-γGlu-γGlu}-SGESG; amide I:28-II:C; N-terminus assumed) | 44 pM | 2% |
